Laboratory results reported in patent publication US10681909B2, “Herbicidal triazoles” (FMC Corporation, priority 2014, dated 2020).

Legend:
[1] = test system: foxtail, giant; test: Test A postemergence; format: in vivo, Setaria faberii; settings: 0 to 100 scale (0 no effect, 100 complete control), approx. 10 d
In short: (§1)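 Test chemicals in a non-phytotoxic solvent with surfactant were applied as a directed soil spray preemergence to seeds sown in loam/sand. Postemergence sprays went to plants 2–10 cm tall at the one- to two-leaf stage. A dash means no result.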

[2] = test system: corn; test: Test C postemergence; format: in vivo, Zea mays
Excerpt: (§2) Seeds of plant species selected from blackgrass (Alopecurus myosuroides), ryegrass, Italian (Italian ryegrass, Lolium multiflorum), wheat (winter wheat, Triticum aestivum), galium (catchweed bedstraw, Galium aparine), corn (Zea mays), crabgrass, large (large crabgrass, Digitaria sanguinalis), foxtail, giant, (giant foxtail, Setaria faberii), johnsongrass (Sorghum halepense), lambsquarters (Chenopodium album), morningglory (Ipomoea coccinea), nutsedge, yellow (yellow nutsedge, Cyperus esculentus), pigweed (Amaranthus retroflexus), ragweed (common ragweed, Ambrosia elatior), soybean (Glycine max), barnyardgrass (Echinochloa crus-galli), oilseed rape (Brassica napus), waterhemp (common waterhemp, Amaranthus rudis), and velvetleaf (Abutilon theophrasti) were planted into a blend of loam soil and sand and treated preemergence with test chemicals formulated in a non-phytotoxic solvent mixture which included a surfactant. At the same time, plants selected from these crop and weed species and also chickweed (common chickweed, Stellaria media), oat, wild (wild oat, Avena fatua), and kochia (Kochia scoparia), were planted in pots containing Sunshine Redi-Earth® planting medium comprising spaghnum peat moss, vermiculite, starter nutrients and dolomitic limestone and treated with postemergence applications of test chemicals formulated in the same manner. Plants ranged in height from 2 to 18 cm (1- to 4-leaf stage) for postemergence treatments. […] A dash (-) response means no test result.

[3] = test system: galium; test: Test C postemergence; format: in vivo, Galium aparine
Excerpt: as §2

[4] = test system: barnyardgrass; test: Test C postemergence; format: in vivo, Echinochloa crus-galli
Excerpt: as §2

[5] = test system: soybean; test: Test C postemergence; format: in vivo, Glycine max
Excerpt: as §2

[6] = test system: pigweed; test: Test A postemergence; format: in vivo, Amaranthus retroflexus; settings: 0 to 100 scale (0 no effect, 100 complete control), approx. 10 d
In short: as §1

[7] = test system: oat, wild; test: Test C postemergence; format: in vivo, Avena fatua
Excerpt: as §2

[8] = test system: ryegrass, Italian; test: Test C postemergence; format: in vivo, Lolium multiflorum
Excerpt: as §2

[9] = test system: oilseed rape; test: Test C postemergence; format: in vivo, Brassica napus
Excerpt: as §2

[10] = test system: barnyardgrass; test: Test B flooded paddy test; format: in vivo, Echinochloa crus-galli; settings: 250 g ai/ha, applied to paddy water at 2-leaf stage, visual rating after 13 to 15 d, scale 0 (no effect) to 100 (complete control)
In short: (§3)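 Pots were flooded to 3 cm above the soil at treatment, and compounds were applied directly into the paddy water. That depth was held throughout. After 13 to 15 d in a greenhouse, plants were rated visually against untreated controls.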

[11] = test system: wheat (winter wheat); test: Test C postemergence; format: in vivo, Triticum aestivum
Excerpt: as §2

[12] = test system: nutsedge, yellow; test: Test C postemergence; format: in vivo, Cyperus esculentus
Excerpt: as §2

[13] = test system: pigweed; test: Test A preemergence; format: in vivo, Amaranthus retroflexus; settings: 0 to 100 scale (0 no effect, 100 complete control)
In short: as §1

[14] = test system: sedge, umbrella; test: Test B flooded paddy test; format: in vivo, Cyperus difformis; settings: 250 g ai/ha, applied to paddy water at 2-leaf stage, visual rating after 13 to 15 d, scale 0 (no effect) to 100 (complete control)
In short: as §3

[15] = test system: waterhemp; test: Test C postemergence; format: in vivo, Amaranthus rudis
Excerpt: as §2

[16] = test system: foxtail, giant; test: Test C postemergence; format: in vivo, Setaria faberii
Excerpt: as §2

[17] = test system: wheat; test: Test A postemergence; format: in vivo, Triticum aestivum; settings: 0 to 100 scale (0 no effect, 100 complete control), approx. 10 d
In short: as §1

[18] = test system: blackgrass; test: Test C postemergence; format: in vivo, Alopecurus myosuroides
Excerpt: as §2

[19] = test system: chickweed; test: Test C postemergence; format: in vivo, Stellaria media
Excerpt: as §2

[20] = test system: lambsquarters; test: Test C postemergence; format: in vivo, Chenopodium album
Excerpt: as §2

COc1nc(-c2ccc(C(F)(F)F)cc2)nn1Cc1ccnc(C(F)(F)F)c1 [Compound 25]
Plant response rating, Foxtail, Giant ([1]; 31 g ai/ha): 50 | Plant response rating, Foxtail, Giant ([1]; 125 g ai/ha): 90 | Plant response rating (scale of 0 to 100 where 0 is no effect and 100 is complete control) ([2]; 31 g ai/ha): 20 | Plant response rating (scale of 0 to 100 where 0 is no effect and 100 is complete control) ([2]; 62 g ai/ha): 20 | Plant response rating (scale of 0 to 100 where 0 is no effect and 100 is complete control) ([2]; 125 g ai/ha): 25 | Plant response rating (scale of 0 to 100 where 0 is no effect and 100 is complete control) ([2]; 250 g ai/ha): 25 | Plant response rating (scale of 0 to 100 where 0 is no effect and 100 is complete control) ([3]; 31 g ai/ha): 80 | Plant response rating (scale of 0 to 100 where 0 is no effect and 100 is complete control) ([3]; 62 g ai/ha): 90 | Plant response rating (scale of 0 to 100 where 0 is no effect and 100 is complete control) ([3]; 125 g ai/ha): 90 | Plant response rating (scale of 0 to 100 where 0 is no effect and 100 is complete control) ([3]; 250 g ai/ha): 90 | Plant response rating (scale of 0 to 100 where 0 is no effect and 100 is complete control) ([4]; 31 g ai/ha): 20 | Plant response rating (scale of 0 to 100 where 0 is no effect and 100 is complete control) ([4]; 62 g ai/ha): 25 | Plant response rating (scale of 0 to 100 where 0 is no effect and 100 is complete control) ([4]; 125 g ai/ha): 35 | Plant response rating (scale of 0 to 100 where 0 is no effect and 100 is complete control) ([4]; 250 g ai/ha): 35 | Plant response rating (scale of 0 to 100 where 0 is no effect and 100 is complete control) ([5]; 31 g ai/ha): 45 | Plant response rating (scale of 0 to 100 where 0 is no effect and 100 is complete control) ([5]; 62 g ai/ha): 70 | Plant response rating (scale of 0 to 100 where 0 is no effect and 100 is complete control) ([5]; 125 g ai/ha): 50 | Plant response rating (scale of 0 to 100 where 0 is no effect and 100 is complete control) ([5]; 250 g ai/ha): 65 | Plant response rating, Pigweed ([6]; 31 g ai/ha): 90 | Plant response rating, Pigweed ([6]; 125 g ai/ha): 100 | Plant response rating (scale of 0 to 100 where 0 is no effect and 100 is complete control) ([7]; 31 g ai/ha): 10 | Plant response rating (scale of 0 to 100 where 0 is no effect and 100 is complete control) ([7]; 62 g ai/ha): 20 | Plant response rating (scale of 0 to 100 where 0 is no effect and 100 is complete control) ([7]; 125 g ai/ha): 25 | Plant response rating (scale of 0 to 100 where 0 is no effect and 100 is complete control) ([7]; 250 g ai/ha): 35 | Plant response rating (scale of 0 to 100 where 0 is no effect and 100 is complete control) ([8]; 31 g ai/ha): 5 | Plant response rating (scale of 0 to 100 where 0 is no effect and 100 is complete control) ([8]; 62 g ai/ha): 5 | Plant response rating (scale of 0 to 100 where 0 is no effect and 100 is complete control) ([8]; 125 g ai/ha): 10 | Plant response rating (scale of 0 to 100 where 0 is no effect and 100 is complete control) ([8]; 250 g ai/ha): 30 | Plant response rating (scale of 0 to 100 where 0 is no effect and 100 is complete control) ([9]; Oilsee Rape, 250 g ai/ha): 90 | Plant response rating (scale of 0 to 100 where 0 is no effect and 100 is complete control) ([9]; Oilseed Rape, 31 g ai/ha): 90 | Plant response rating (scale of 0 to 100 where 0 is no effect and 100 is complete control) ([9]; Oilseed Rape, 62 g ai/ha): 90 | Plant response rating (scale of 0 to 100 where 0 is no effect and 100 is complete control) ([9]; Oilseed Rape, 125 g ai/ha): 90 | Plant response rating, Barnyardgrass, Flood [10]: 35 | Plant response rating (scale of 0 to 100 where 0 is no effect and 100 is complete control) ([11]; 31 g ai/ha): 5 | Plant response rating (scale of 0 to 100 where 0 is no effect and 100 is complete control) ([11]; 62 g ai/ha): 5 | Plant response rating (scale of 0 to 100 where 0 is no effect and 100 is complete control) ([11]; 125 g ai/ha): 5 | Plant response rating (scale of 0 to 100 where 0 is no effect and 100 is complete control) ([11]; 250 g ai/ha): 10 | Plant response rating (scale of 0 to 100 where 0 is no effect and 100 is complete control) ([12]; 31 g ai/ha): 20 | Plant response rating (scale of 0 to 100 where 0 is no effect and 100 is complete control) ([12]; 62 g ai/ha): 20 | Plant response rating (scale of 0 to 100 where 0 is no effect and 100 is complete control) ([12]; 125 g ai/ha): 25 | Plant response rating (scale of 0 to 100 where 0 is no effect and 100 is complete control) ([12]; 250 g ai/ha): 25 | Plant response rating, Pigweed ([13]; 31 g ai/ha): 90 | Plant response rating, Pigweed ([13]; 125 g ai/ha): 100 | Plant response rating, Sedge, Umbrella, Flood [14]: 95 | Plant response rating (scale of 0 to 100 where 0 is no effect and 100 is complete control) ([15]; 31 g ai/ha): 95 | Plant response rating (scale of 0 to 100 where 0 is no effect and 100 is complete control) ([15]; 62 g ai/ha): 95 | Plant response rating (scale of 0 to 100 where 0 is no effect and 100 is complete control) ([15]; 125 g ai/ha): 98 | Plant response rating (scale of 0 to 100 where 0 is no effect and 100 is complete control) ([15]; 250 g ai/ha): 95 | Plant response rating (scale of 0 to 100 where 0 is no effect and 100 is complete control) ([16]; 31 g ai/ha): 10 | Plant response rating (scale of 0 to 100 where 0 is no effect and 100 is complete control) ([16]; 62 g ai/ha): 20 | Plant response rating (scale of 0 to 100 where 0 is no effect and 100 is complete control) ([16]; 125 g ai/ha): 20 | Plant response rating (scale of 0 to 100 where 0 is no effect and 100 is complete control) ([16]; 250 g ai/ha): 35 | Plant response rating, Wheat ([17]; 31 g ai/ha): 10 | Plant response rating, Wheat ([17]; 125 g ai/ha): 20 | Plant response rating (scale of 0 to 100 where 0 is no effect and 100 is complete control) ([18]; 31 g ai/ha): 5 | Plant response rating (scale of 0 to 100 where 0 is no effect and 100 is complete control) ([18]; 62 g ai/ha): 10 | Plant response rating (scale of 0 to 100 where 0 is no effect and 100 is complete control) ([18]; 125 g ai/ha): 30 | Plant response rating (scale of 0 to 100 where 0 is no effect and 100 is complete control) ([18]; 250 g ai/ha): 60 | Plant response rating (scale of 0 to 100 where 0 is no effect and 100 is complete control) ([19]; 31 g ai/ha): 50 | Plant response rating (scale of 0 to 100 where 0 is no effect and 100 is complete control) ([19]; 62 g ai/ha): 90 | Plant response rating (scale of 0 to 100 where 0 is no effect and 100 is complete control) ([19]; 125 g ai/ha): 85 | Plant response rating (scale of 0 to 100 where 0 is no effect and 100 is complete control) ([19]; 250 g ai/ha): 100 | Plant response rating (scale of 0 to 100 where 0 is no effect and 100 is complete control) ([20]; 31 g ai/ha): 90 | Plant response rating (scale of 0 to 100 where 0 is no effect and 100 is complete control) ([20]; 62 g ai/ha): 90 | Plant response rating (scale of 0 to 100 where 0 is no effect and 100 is complete control) ([20]; 125 g ai/ha): 98 | Plant response rating (scale of 0 to 100 where 0 is no effect and 100 is complete control) ([20]; 250 g ai/ha): 98
